In US11860169B2, “Method of treating and prognosing scoliotic patient subgroups” (Chu Sainte-Justine, priority 2013, dated 2024):
Entries after “also recorded” stand apart in the source; their conditions may differ.

What was measured:
[1] = system: Gi-mediated cell signaling; assay: Gi-mediated cellular response measured by cellular impedance (CellKey system) in osteoblasts treated with OPN, HA or antibodies; format: cell-based, human; settings: LPA stimulation
Description: Gi-mediated cellular response in the presence of increasing amounts of rOPN was measured by cellular impedance using the CellKey™ system (Akoume et al., 2010; and Akoume et al., 2013 (J. Vis. Exp.)) in functional groups FG1, FG2 and FG3;
Osteoblasts from healthy subjects and AIS patients of each endophenotype (FG1, FG2 and FG3) were treated with vehicle, OPN (500 ng/ml) or HA (10 μM). The Gi-mediated cellular response in the presence of increasing amounts of LPA was measured by cellular impedance using the CellKey™ system;
(§1) CD44 activity (A) or expression (B) was inhibited in osteoblasts from control, FG1, FG2 and FG3 patients and the effect on OPN-dependent inhibition of Gi-mediated cell signaling was monitored using the CellKey™ system following stimulation with LPA.
Antibodies against integrins β1, β3 and β5 reverse the effect of OPN on Gi-mediated response in FG2 and FG3 subjects only, while blockade of CD44 further potentiates the effect of OPN.
(§2) The variation in Gi-mediated cell signaling in response to OPN in each functional group (FG1, FG2 and FG3) was studied. FIGS. 20 and 21 show the response to OPN (increasing doses) on osteoblasts isolated from patients classified into functional groups FG1, FG2 and FG3. […] Furthermore, MC3T3-E1 cells were used to check the effect of the knockdown of OPN and its receptors. MC3T3-E1 osteoblasts cells were transiently transfected in serum-free medium, using Lipofectamine™ RNAiMAX reagent (Invitrogen) according to the manufacturers instructions and functional experiments were performed 48 h post transfection.

[2] = system: Gi-mediated cell signaling; assay: Gi-mediated cellular response measured by cellular impedance (CellKey system) after siRNA knockdown in osteoblasts; format: cell-based; settings: for Effect of OPN knock down on Gi-mediated transduction: 48 h post transfection; for Effect of siRNA on OPN-dependent change of Gi-mediated cell signaling: in presence of OPN
Description: Gi-mediated cellular response in the presence siRNAs against rOPN was measured by cellular impedance using the CellKey™ system (Akoume et al., 2010; and Akoume et al., 2013 (J. Vis. Exp.)) in functional groups FG1, FG2 and FG3;
as §1
SiRNAs against integrins β1, β3 and β5 reversed the effect of OPN on Gi-mediated response while blockade of CD44 further potentiated the effect of OPN.
as §2
MC3T3-E1 cells were also used to check the effect of the knockdown of OPN's receptors by RNAi. Experimental conditions were as described for Example 5. The sequence of RNA oligonucleotides used for the knockdowns are: integrin β1 (CCU MG UCA GCA GUA GGA ACA UUA U (SEQ ID NO: 15)), integrin β3 (CCUCCAGCUCAUUGUUGAUGCUUAU (SEQ ID NO: 16)); integrin β5 ([…], HSS-105572, Life technologies (SEQ ID NO: 17), […], HSS-105573, Life technologies (SEQ ID NO: 18); and […], HSS-179984, life technologies, (SEQ ID NO: 19)) and CD44 (GM CM GGA GUC GUC AGA MC UCC A (SEQ ID NO: 20)).

[3] = osteoblasts from FG1 AIS subjects, increasing rOPN, or OPN 500 ng/ml or HA 10 μM
[4] = osteoblasts from FG2 AIS subjects, increasing rOPN, or OPN 500 ng/ml or HA 10 μM
[5] = osteoblasts from FG3 AIS subjects, increasing rOPN, or OPN 500 ng/ml or HA 10 μM
[6] = osteoblasts from control (healthy) subjects, OPN 500 ng/ml or HA 10 μM
[7] = osteoblasts from control subjects

Row | Substance | Effect on Gi-mediated cellular response [1, 3] | Effect on Gi-mediated cellular response [1, 4] | Effect on Gi-mediated cellular response [1, 5] | Effect on Gi-mediated cellular response [1, 6] | Effect of siRNA on OPN-dependent change of Gi-mediated cell signaling ([2]; osteoblasts from FG1 subjects) | Effect of siRNA on OPN-dependent change of Gi-mediated cell signaling ([2]; osteoblasts from FG2 subjects) | Effect of siRNA on OPN-dependent change of Gi-mediated cell signaling ([2]; osteoblasts from FG3 subjects) | Effect of siRNA on OPN-dependent change of Gi-mediated cell signaling [2, 7] | further results
1 | Hyaluronic acid [HA] | increases the Gi-mediated cellular response | decreases the Gi-mediated response | decreases the Gi-mediated response | decreases the Gi-mediated response | – | – | – | – | –
2 | OPN siRNA: siRNA for knock down of OPN expression: CCA CAG CCA CM GCA GUC CAG AUU A (CCACAGCCACAAGCAGUCCAGAUUA; listed as RNA, chemistry not fully specified) | – | – | – | – | – | – | – | – | Effect of OPN knock down on Gi-mediated transduction ([2]; FG1): tends to decrease the response; Effect of OPN knock down on Gi-mediated transduction ([2]; FG2): increases Gi-mediated transduction; Effect of OPN knock down on Gi-mediated transduction ([2]; FG3): increases Gi-mediated transduction
3 | OPN: osteopontin, encoded by SPP1 (Gene ID 6696); recombinant rOPN added to osteoblasts | enhances Gi signaling | aggravates the impairment | aggravates the impairment | decreases the Gi-mediated response | – | – | – | – | –
4 | siRNA against CD44: RNA oligonucleotide for CD44 knockdown: GM CM GGA GUC GUC AGA MC UCC A (GAACAAGGAGUCGUCAGAAACUCCA; listed as RNA, chemistry not fully specified) | – | – | – | – | further increased Gi-mediated cell signaling | further decreased Gi-mediated cell signaling; also recorded: further reduced Gi-mediated signaling | further decreased Gi-mediated cell signaling; also recorded: further reduced Gi-mediated signaling | further decreased Gi-mediated cell signaling; also recorded: further reduced Gi-mediated signaling | –
5 | siRNA against integrin β1: RNA oligonucleotide for integrin β1 knockdown: CCU MG UCA GCA GUA GGA ACA UUA U (CCUAAGUCAGCAGUAGGAACAUUAU; listed as RNA, chemistry not fully specified) | – | – | – | – | reduced (blocked) the increase in Gi-mediated response induced by OPN | can be reversed | can be reversed | can be reversed | –
6 | siRNA against integrin β3: RNA oligonucleotide for integrin β3 knockdown: CCUCCAGCUCAUUGUUGAUGCUUAU (CCUCCAGCUCAUUGUUGAUGCUUAU; listed as RNA, chemistry not fully specified) | – | – | – | – | reduced (blocked) the increase in Gi-mediated response induced by OPN | can be reversed | can be reversed | can be reversed | –
